From patent US20180296523A1, “USE OF POLYMETHOXYLATED FLAVONES TO AMELIORATE CIRCADIAN RHYTHM DISORDERS” (THE BOARD OF REGENTS OF THE UNIVERSITY OF TEXAS SY, priority 2017, published 2018)
Entries after “also recorded” stand apart in the source; their conditions may differ.

How the values were obtained:
RORα-LBD = target: T1, RORα-LBD (Homo sapiens, UniProt P35398); assay: Radioligand receptor binding assay with 25-[3H]-OHC, RORα-LBD; details: in the presence of 4.5 nM 25-[3H]-OHC
T1 sequence (P35398 272-510 limits assumed): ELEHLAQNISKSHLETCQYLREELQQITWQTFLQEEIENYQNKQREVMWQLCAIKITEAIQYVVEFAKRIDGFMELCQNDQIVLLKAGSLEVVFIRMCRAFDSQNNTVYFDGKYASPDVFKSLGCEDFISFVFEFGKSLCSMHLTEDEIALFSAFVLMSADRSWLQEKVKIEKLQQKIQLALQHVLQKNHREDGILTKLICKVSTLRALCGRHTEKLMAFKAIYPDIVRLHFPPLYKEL
Experimental: Ligand binding was determined by filter binding assays to calculate the Kd value. […] Ki was determined using the Cheng-Prusoff equation.

[1] = tested on: HFD-fed WT and Clock^Δ19/Δ19 C57BL/6J mice; assay: Diet-induced obese (DIO) mouse model, HFD-fed WT and Clock^Δ19/Δ19 mice; assay type: in vivo; details: for body weight gain: 10-week treatment
Experimental: For diet-induced obesity, male mice at 6 weeks of age were fed with HFD (D12492, Research Diets) until the end of the experimental protocol. The mice were treated with either vehicle (DMSO) or NOB (200 mg/kg body weight) via oral gavage every other day, in the time window of ZT8-10, throughout the experimental period. An every-other-day dosing regimen was chosen at the indicated level based on several reasons. First, previous in vivo studies have used similar overall amounts for mouse treatment (100-125 mg/kg/day) (Lee et al., 2013; Li et al., 2006). The oral gavage procedure was done in late afternoon (ZT8-10) prior to the start of their active phase, reasoning that this may coincide with the time-window adopted by previous studies. Second, daily dosing was not chosen to avoid entraining the experimental mice with the procedure per se as an artificial zeitgeber. Furthermore, pilot pharmacokinetic (PK) assays were done under a single-dose condition (Fig. S7). […] Therefore, it was reasoned that every-other day dosing helps avoid any incomplete daily clearance over the chronic experimental period (10 weeks). Weekly body weight was monitored in different treatment mice for 10 weeks. Body mass composition was measured at the end of experiments using a […] spectrometer (Bruker Optics, Texas) (Garcia et al., 2013). A control group of mice were fed with regular chow diet (Purina 5001) in parallel with the two treatment groups in HFD. For db/db and db/db Clock^[…]/[…] mice, male mice at 6-8 weeks of age were group-housed (2-3/cage) and maintained on regular chow diets. Mice were subjected to oral gavage with either DMSO or NOB as described above. Energy expenditure was examined by measuring oxygen consumption with indirect calorimetry as described (Chutkow et al., 2010; Daniels et al., 2010). After 8 weeks of treatments described above, mice from each group were placed at room temperature (22° C.-24° C.) in the chambers of a Comprehensive Lab Animal Monitoring System (CLAMS, Columbus Instruments, Columbus, Ohio). After mice adapted to the metabolic chamber, volume of O2 consumption and CO2 production was continuously recorded over a 24-hr period. Average O2 consumption was calculated and compared between different treatments. Food and water were provided ad libitum. To measure food intake, food pellets were weighted every three hours over a 24-hr period in mice treated as above. The daily food intake was calculated from averaged food intake of 3 independent experiments. Serum samples were obtained at ZT2 from treated mice as previously described (Jeong et al., 2015). Hepatic triglyceride and cholesterol were extracted as previously described (Liu et al., 2012). The triglyceride and cholesterol levels in liver and serum were assessed by Serum Triglyceride Determination Kit (Sigma) and Cholesterol Assay Kit (Cayman), respectively. The assay plates were read by a TECAN M200 instrument (Tecan) following the manufacturer's instructions. Glucose tolerance test (GTT) and insulin tolerance test (ITT) were performed largely as described (He et al., 2015; Jeong et al., 2015). Briefly, after overnight and 5-hr fasting, GTT and ITT were conducted at ZT2 and ZT8 respectively. Glucose levels were measured from tail blood before and 15, 30, 60, or 120 min after injection of either 1 g/kg glucose or 0.75 U/kg insulin (Sigma) at ZT2 and ZT8 respectively by using the ONETOUCH UltraMini blood glucose monitoring system (LifeScan). Serum insulin levels were measured with the Rat/Mouse Insulin Elisa kit (Millipore) according to the manufacturer's instructions. The plasma samples were collected at ZT2 as described above for lipid assays. For microscopic analysis of lipid accumulation in liver, tissue samples were collected and immediately embedded in Tissue-Tek OCT cryostat molds (Leica) and then frozen at -80° C. Tissue sections were stained in 0.5% Oil Red O and counterstained with Mayer's hematoxylin for 1 min. […]

[2] = tested on: PER2::LucSV reporter fibroblast cells; assay: Dose response validation of reporter rhythm in PER2::LucSV cells; assay type: cell-based, mouse
Experimental: The chemical screen for circadian clock modulators was conducted at the Chemical Genomics Core facility at the UTHSC-H. The in-house chemical library screened consists of compounds from NIH Clinical Collection, NCI collection and Microsource Spectrum Collection. The screening was conducted largely based on the protocol previously described (Chen et al., 2012). […] Cells were then incubated with 5 μM forskolin for 1-2 h followed by the addition of chemical compounds to the plates with robotic arms (Beckman), and then subjected to continuous monitoring over several days in a temperature-controlled EnVision microplate reader (Perkin Elmer). Data analysis was carried out by using the MultiCycle software (Actimetrics) for measurement of period, phase, and amplitude. […] Tissue explant experiments were conducted as described previously (Chen et al., 2012).

[3] = HFD-fed WT mice, serum and liver

C[C@@H]1O[C@@H](O[C@H]2[C@H](Oc3cc(O)c4c(c3)O[C@H](c3ccc(O)cc3)CC4=O)O[C@H](CO)[C@@H](O)[C@@H]2O)[C@H](O)[C@H](O)[C@H]1O [naringin, reference compound] was tested. Which “competitive binding to RORα-LBD” value (RORα-LBD) did it give?
The value was “markedly diminished binding”.

What about the “difference of treatment effects between WT and Clock^Δ19/Δ19 mice” value ([1]; HFD-fed C57BL/6J mice) of the same compound?
Its value is “largely indistinguishable”.

What about the blood insulin levels ([1]; HFD-fed Clock^Δ19/Δ19 mice) of the same compound?
The blood insulin levels was “decreased to similar extents”.

And the “glucose tolerance (GTT)” value ([1]; HFD-fed Clock^Δ19/Δ19 mice)?
Its value is “modest effects on glucose tolerance”.

And the “insulin sensitivity (ITT)” value ([1]; HFD-fed Clock^Δ19/Δ19 mice)?
Its value is “modest effects on insulin sensitivity”.

And the “fasting blood glucose levels” value ([1]; HFD-fed Clock^Δ19/Δ19 mice, daytime and nighttime)?
The value was “failed to reduce fasting blood glucose levels”.

What about the fasting glucose levels ([1]; HFD-fed WT mice) of the same compound?
The fasting glucose levels was “reduced fasting blood glucose levels”.

What about the “glucose tolerance (GTT)” value ([1]; HFD-fed WT mice) of the same compound?
The value was “modest effects on glucose tolerance”.

And the “insulin sensitivity (ITT)” value ([1]; HFD-fed WT mice)?
The value was “modest effects on insulin sensitivity”.

And the blood insulin levels ([1]; HFD-fed WT mice, vs vehicle)?
The blood insulin levels was “decreased to similar extents”.

And the “effects on body weight gain and lipid and glucose homeostasis” value ([1]; HFD-fed mice, compared with nobiletin)?
The value was “significantly attenuated effects”.

And the reporter luminescence ([2]; PER2::LucSV reporter cells)?
The reporter luminescence was “did not enhance the reporter luminescence”.

With COc1ccc(-c2cc(=O)c3c(OC)c(OC)c(OC)c(OC)c3o2)cc1OC [nobiletin] as the compound, how does the “competitive binding to RORα-LBD” value (RORα-LBD) read?
The value was “direct binding; also recorded: robust competitive binding”.

And the “lipid droplet formation in liver” value ([1]; DIO WT liver)?
Its value is “essentially abolished lipid droplet formation”.

What about the “liver steatosis (H&E and Oil Red O staining)” value ([1]; DIO WT liver) of the same compound?
Its value is “strongly improved liver steatosis”.

What about the adipocyte cell size ([1]; HFD-fed Clock^Δ19/Δ19 mice) of the same compound?
The adipocyte cell size was “essentially unchanged”.

And the energy expenditure ([1]; HFD-fed Clock^Δ19/Δ19 mice)?
Its energy expenditure is “no increase”.

And the fat mass ([1]; HFD-fed Clock^Δ19/Δ19 mice)?
Its fat mass is “essentially unchanged”.

And the food intake ([1]; HFD-fed Clock^Δ19/Δ19 mice)?
Its food intake is “did not change food intake”.

And the “glucose and lipid homeostasis” value ([1]; HFD-fed Clock^Δ19/Δ19 mice)?
Its value is “did not significantly improve”.

What about the respiratory quotient ([1]; HFD-fed Clock^Δ19/Δ19 mice) of the same compound?
Its respiratory quotient is “no increase”.

And the body weight gain ([1]; HFD-fed Clock^Δ19/Δ19 mice)?
The body weight gain was “very modest reduction in body weight gain”.

What about the “beneficial effect on liver steatosis” value ([1]; HFD-fed Clock^Δ19/Δ19 mice, compared with WT mice) of the same compound?
The value was “markedly attenuated”.

And the fasting glucose levels ([1]; HFD-fed WT mice)?
The fasting glucose levels was “lowered fasting glucose levels”.

What about the “fat mass (body mass composition)” value ([1]; HFD-fed WT mice) of the same compound?
The value was “reduction in fat mass”.

And the “glucose tolerance (GTT)” value ([1]; HFD-fed WT mice)?
The value was “significantly improved”.

What about the “insulin sensitivity (ITT)” value ([1]; HFD-fed WT mice) of the same compound?
Its value is “significantly improved”.

What about the respiratory quotient ([1]; HFD-fed WT mice) of the same compound?
The respiratory quotient was “increased”.

And the “white adipose cell size” value ([1]; HFD-fed WT mice)?
The value was “reduction”.

What about the body weight gain ([1]; HFD-fed WT mice, 200 mg/kg oral every other day, vs vehicle) of the same compound?
The body weight gain was “significantly attenuated body weight gain”.

What about the “total cholesterol (TC) levels” value [1, 3] of the same compound?
Its value is “significantly diminished”.

What about the “total triglyceride (TG) levels” value [1, 3] of the same compound?
Its value is “significantly diminished”.

What about the “oxygen consumption (energy expenditure)” value ([1]; HFD-fed WT mice, throughout the circadian cycle) of the same compound?
Its value is “greatly elevated oxygen consumption”.

And the blood insulin levels ([1]; HFD-fed WT mice, vs vehicle)?
Its blood insulin levels is “strongly reduced”.

What about the food intake ([1]; HFD-fed WT mice, vs vehicle) of the same compound?
The food intake was “not significantly altered”.

And the “white adipose cell size” value ([1]; HFD-fed WT mice, listed as NOB)?
The value was “reduced visceral WAT cell size”.

And the “amplitude of PER2::LucSV reporter rhythm” value [2]?
Its value is “robustly enhanced the amplitude”.

And the “period of PER2::LucSV reporter rhythm” value [2]?
Its value is “lengthened the period in a dose-dependent manner”.

And the EC50 ([2]; Mus musculus, Fibroblast, PER2::LucSV reporter rhythm, read-out: estimated half maximal effective concentration)?
Its EC50 is less than 5 µM.
